Source: patent US10322110B2, “Imidazole-based antimicrobial agents” (priority 2014, dated 2019)
Converted amounts (≈) assume the structure as drawn. Like-named read-outs stand apart in the source and are kept apart here.

Legend:
Format in all cases: cell-based
[1] = system: Streptococcus pneumoniae (Chester, ATCC49619); assay: broth microdilution MIC assay, Streptococcus pneumoniae; conditions: MIC100 class score, 24 h
[2] = system: Bacillus subtilis (Marburg strain, ATCC6051); assay: microbe, parasite or virus in culture; conditions: ATCC6051, read-out: Antibacterial activity BS (Bacillus substilis)
[3] = system: Staphylococcus aureus MRSA (COL); assay: broth microdilution MIC assay, Staphylococcus aureus MRSA (COL); conditions: for MIC: Staphylococcus aureus, MRSA
[4] = system: Staphylococcus epidermidis (PCI 1200, ATCC12228); assay: broth microdilution MIC assay, Staphylococcus epidermidis; conditions: ATCC12228, read-out: Antibacterial activity SE (Staphylococcus epidermidis)
[5] = system: Human hepatocytes (HepaRG cells); assay: human cytotoxicity assay in vitro (CellTiter-Glo), hepatocytes; conditions: cytotoxicity class
[6] = system: Staphylococcus aureus MSSA (Newman); assay: broth microdilution MIC assay, Staphylococcus aureus MSSA (Newman); conditions: for MIC: Staphylococcus aureus; for Antibacterial activity Staphylococcus aureus (MSSA): MIC100 class score, broth microdilution
[7] = system: penicillin-, erythromycin- and tetracycline-resistant Streptococcus pneumoniae (ATCC 700677), ARSP; assay: microbe, parasite or virus in culture; conditions: ATCC700677, MIC activity class, read-out: Antibacterial activity ARSP (multi-drug resistant-SP)
[8] = 24 h, read-out: Antibacterial activity Staphylococcus aureus (MRSA)
[9] = read-out: Antibacterial activity MRSA (Staphylococcus aureus MRSA)
[10] = 24 h, read-out: Antibacterial activity Staphylococcus aureus (MSSA)
[11] = read-out: Antibacterial activity MSSA (Staphylococcus aureus MSSA)
[12] = MIC100 class score, broth microdilution, 24 h

Row | SMILES | Antibacterial activity Streptococcus pneumoniae [1] | MIC [2] [µg/mL] | MIC [3, 8] [µg/mL] | MIC [3, 9] [µg/mL] | MIC [4] [µg/mL] | cytotoxicity cell line H (hepatocytes) [5] | MIC [6, 10] [µg/mL] | MIC [6, 11] [µg/mL] | Antibacterial activity Staphylococcus aureus (MRSA) [3, 12] | Antibacterial activity Staphylococcus aureus (MSSA) ([6]; 24 h) | MIC [7] [µg/mL] | MIC ([3]; MIC100 class score, broth microdilution, 24 h, read-out: Antibacterial activity Staphylococcus aureus (MRSA)) [µg/mL]
1 | Cc1[nH]c(-c2ccc(-c3ccccc3C(F)(F)F)o2)nc1-c1ccc(Br)cc1 [Compound 25] | 3 (MIC100 of 2-5 μg/ml) | 20 to 50 (≈ 44.7 to 112 µM) | – | – | – | – | – | – | – | – | – | –
2 | Cc1[nH]c(-c2ccc(-c3ccccc3Cl)o2)nc1-c1ccccc1 [Compound 3] | – | – | 11 to 201 (≈ 32.9 to 600 µM) | 11 to 201 (≈ 32.9 to 600 µM) | 11 to 201 (≈ 32.9 to 600 µM) | 3 | 3 to 10 (≈ 8.96 to 29.9 µM) | 3 to 10 (≈ 8.96 to 29.9 µM) | – | – | – | –
3 | Cc1nc(-c2ccc(-c3ccc(Cl)c(OC(F)(F)F)c3)o2)[nH]c1-c1ccc(Cl)cc1 [Compound 44] | – | 1 to 3 (≈ 2.21 to 6.62 µM) | – | 11 to 201 (≈ 24.3 to 443 µM) | 11 to 201 (≈ 24.3 to 443 µM) | 2 | – | 1 to 3 (≈ 2.21 to 6.62 µM) | 2 (MIC100 of 11-201 μg/ml) | – | – | –
4 | FC(F)(F)Oc1ccccc1-c1ccc(-c2ncc(-c3ccccc3)[nH]2)o1 [Compound 63] | 3 (MIC100 of 2-5 μg/ml) | – | – | 3 to 10 (≈ 8.1 to 27 µM) | 3 to 10 (≈ 8.1 to 27 µM) | 2 | – | 3 to 10 (≈ 8.1 to 27 µM) | – | 3 (MIC100 of 3-10 μg/ml) | – | –
5 | CCc1ccc(-c2ccc(-c3nc(-c4ccccc4)c(C)[nH]3)o2)cc1 [Compound 53] | – | – | 20 to 50 (≈ 60.9 to 152 µM) | 20 to 50 (≈ 60.9 to 152 µM) | – | 3 | 3 to 10 (≈ 9.13 to 30.4 µM) | 3 to 10 (≈ 9.13 to 30.4 µM) | – | – | – | –
6 | Cc1[nH]c(-c2ccc(-c3cccc(Cl)c3Cl)o2)nc1-c1ccccc1 [Compound 2] | – | 20 to 50 (≈ 54.2 to 135 µM) | – | – | – | 2 | 20 to 50 (≈ 54.2 to 135 µM) | 20 to 50 (≈ 54.2 to 135 µM) | – | – | 2 to 5 (≈ 5.42 to 13.5 µM) | –
7 | Cc1[nH]c(-c2ccc(-c3ccc(OC(F)(F)F)c(Cl)c3)o2)nc1-c1ccc(Cl)cc1 [Compound 50] | – | – | 11 to 201 (≈ 24.3 to 443 µM) | 11 to 201 (≈ 24.3 to 443 µM) | 20 to 50 (≈ 44.1 to 110 µM) | – | 3 to 10 (≈ 6.62 to 22.1 µM) | 3 to 10 (≈ 6.62 to 22.1 µM) | – | – | – | –
8 | Cc1[nH]c(-c2ccc(-c3ccc(Cl)c(C(F)(F)F)c3)o2)nc1-c1ccc(F)cc1 [Compound 42] | – | 1 to 3 (≈ 2.38 to 7.13 µM) | – | – | 3 to 10 (≈ 7.13 to 23.8 µM) | – | – | 1 to 3 (≈ 2.38 to 7.13 µM) | – | – | < 1 | –
9 | Cc1nc(-c2ccc(-c3ccc(Cl)cc3)o2)[nH]c1-c1ccccc1 [Compound 5] | – | – | 3 to 10 (≈ 8.96 to 29.9 µM) | 3 to 10 (≈ 8.96 to 29.9 µM) | 3 to 10 (≈ 8.96 to 29.9 µM) | 2 | 1 to 3 (≈ 2.99 to 8.96 µM) | 1 to 3 (≈ 2.99 to 8.96 µM) | – | – | – | –
10 | COc1ccc(-c2ccc(-c3nc(C)c(-c4ccccc4)[nH]3)o2)c(C(F)(F)F)c1 [Compound 31] | – | – | 3 to 10 (≈ 7.53 to 25.1 µM) | 3 to 10 (≈ 7.53 to 25.1 µM) | – | 3 | 3 to 10 (≈ 7.53 to 25.1 µM) | 3 to 10 (≈ 7.53 to 25.1 µM) | – | – | – | –
11 | FC(F)(F)c1ccccc1-c1ccc(-c2nc(Cl)c(-c3ccccc3)[nH]2)o1 [Compound 65] | – | – | – | – | – | 2 | – | 11 to 201 (≈ 28.3 to 517 µM) | – | 2 (MIC100 of 11-201 μg/ml) | – | –
12 | Cc1[nH]c(-c2ccn(-c3ccccc3C(F)(F)F)c2)nc1-c1ccccc1 [Compound 33] | 2 (MIC100 of 6-10 μg/ml) | – | – | 20 to 50 (≈ 54.4 to 136 µM) | 11 to 201 (≈ 29.9 to 547 µM) | – | – | 3 to 10 (≈ 8.17 to 27.2 µM) | – | 3 (MIC100 of 3-10 μg/ml) | – | –
13 | Cc1[nH]c(-c2cc(C)n(-c3ccc4c(c3)CCC4)c2C)nc1-c1ccccc1 [Compound 59] | 3 (MIC100 of 2-5 μg/ml) | – | – | – | – | 2 | – | – | – | – | – | –
14 | Cc1[nH]c(-c2ccc(-c3cc(C(F)(F)F)ccc3Cl)o2)nc1-c1ccccc1 [Compound 40] | – | – | – | – | – | 2 | – | – | – | – | – | –
15 | CCc1ccc(-c2[nH]c(-c3ccc(-c4ccccc4C(F)(F)F)o3)nc2C)cc1 [Compound 28] | 3 (MIC100 of 2-5 μg/ml) | 1 to 3 (≈ 2.52 to 7.57 µM) | – | 20 to 50 (≈ 50.5 to 126 µM) | – | – | – | 20 to 50 (≈ 50.5 to 126 µM) | – | – | – | –
16 | Cc1[nH]c(-c2cc(C)n(-c3ccc(F)c(F)c3F)c2C)nc1-c1ccccc1 [Compound 10] | 2 (MIC100 of 6-10 μg/ml) | – | – | – | – | 3 | – | – | – | – | – | –
17 | Cc1[nH]c(-c2ccc(-c3ccc(C(F)(F)F)cc3)o2)nc1-c1ccccc1 [Compound 45] | – | 3 to 10 (≈ 8.14 to 27.1 µM) | – | 11 to 201 (≈ 29.9 to 546 µM) | 3 to 10 (≈ 8.14 to 27.1 µM) | – | 3 to 10 (≈ 8.14 to 27.1 µM) | 3 to 10 (≈ 8.14 to 27.1 µM) | – | – | 2 to 5 (≈ 5.43 to 13.6 µM) | 3 to 10 (≈ 8.14 to 27.1 µM)
18 | Cc1[nH]c(-c2cc(C)n(-c3ccc(Cl)cc3)c2C)nc1-c1ccccc1 [Compound 8] | 3 (MIC100 of 2-5 μg/ml) | – | – | 20 to 50 (≈ 55.3 to 138 µM) | – | 2 | – | – | – | – | – | –
19 | Cc1nc(-c2ccc(-c3ccccc3OC(F)(F)F)o2)[nH]c1-c1ccc(Br)cc1 [Compound 29] | 3 (MIC100 of 2-5 μg/ml) | – | – | 11 to 201 (≈ 23.7 to 434 µM) | – | – | – | 3 to 10 (≈ 6.48 to 21.6 µM) | 2 (MIC100 of 11-201 μg/ml) | 3 (MIC100 of 3-10 μg/ml) | – | –
